What follows are compounds tested on TGFβ1-induced expression of α-SMA protein in human HSC (assay: α-SMA ELISA in TGFβ1-activated human primary hepatic stellate cells (single agents and NTZ/statin or TZ/statin combination matrix, EOB/EOHSA)). Details: Homo sapiens; hHSC, 1 h preincubation, TGFβ1 1 ng/mL, 48 h, ELISA; read-out: IC50, reduction of α-SMA level in TGFβ-induced HSC.
Assay type: cell-based
Protocol: After 48 hours of incubation, the expression of α-SMA was measured by ELISA. […] Data are presented as mean (triplicates)±standard deviation (SD). Statistical analyses were performed by one-way ANOVA followed by Bonferroni post-hoc tests, using Sigma Plot 11.0 software. […] After 48 hours of incubation, the expression of α-SMA was measured by ELISA. […] Data are presented as mean (triplicates)±standard deviation (SD). Statistical analyses were performed by one-way ANOVA followed by Bonferroni post-hoc tests, using Sigma Plot 11.0 software. […] Combinations were tested in a dose-response matrix format and analyzed according to the excess over Bliss (EOB) additivism model. Dilution series of NTZ (column) and pitavastatin (row) were prepared, including their respective DMSO controls. […] Data are presented as mean of quadruplicates. (B) EOB scores were calculated as described in Materials and Methods. Any compound pair with positive EOB values was considered synergistic (colored from light grey to black). […] Data are presented as mean (quadruplicates)±standard deviation (SD). Statistical analyses between single agent vs product combination were performed by student t-test or Mann-Whitney Rank Sum Test using Sigma Plot 11.0 software. [*: p<0.05; **: p<0.01; ***: p<0.001]. […] Cell-culture flasks were coated with poly-L lysine (Sigma cat #P4707) for a better adherence. The checkerboard matrix was adopted. NTZ or TZ and statin stocks were serially diluted in DMSO in a 5-points series in a row (statin) and a column (NTZ or TZ) of a 96-well plate. […] Then, 2-fold and 4-fold higher and lower concentrations were selected. […] The human primary hepatic stellate cells (hHSC) (Innoprot) were cultured under standard conditions, as described above. […] Plates were then incubated for 30 min on ice using a plate shaker, before storage at -20° C. The level of α-SMA was measured using a Sandwich ELISA. Briefly, the wells of an ELISA plate were first coated with the capture antibody (mouse monoclonal anti-ACTA2, Abnova) at 4° C. overnight. […] The cell lysates were transferred into the wells for binding to the capture antibody for a period of 2 h at room temperature. After the washing procedure, the detection antibody (biotinylated mouse monoclonal anti-ACTA2, Abnova) was added for 2 hours at room temperature followed by 3 washes. For the detection, an HRP-conjugated streptavidin (R&D Systems cat #DY998) was first applied for 30 min at room temperature. […] Upon oxidation, TMB forms a water-soluble blue reaction product that becomes yellow with addition of sulfuric acid (solution stop), enabling accurate measurement of the intensity at 450 nm using a spectrophotometer. The developed color is directly proportional to the amount of α-SMA present in the lysate. […] Expected Bliss additivism score (E) was firstly determined by the equation: E=(A+B)-(A×B) where A and B are the percentage inhibitions converted into fractions within a range of 0 to 1 of NTZ (A) and a given statin (B) at a given dose. […] For each product combination (NTZ+statin), an additional total Bliss score was calculated by summation of all EOB. […] The significance of the observed differences between NTZ/statin or TZ/statin and single agents were estimated by a student t-test or Mann-Whitney Rank Sum Test using Sigma Plot 11.0 software [*: p<0.05; **: p<0.01; ***: p<0.001].

| IC50 [nM] | Compound |
| --- | --- |
| 1000 to 3000 | CC(C)c1c(C(=O)Nc2ccccc2)c(-c2ccccc2)c(-c2ccc(F)cc2)n1CC[C@@H](O)C[C@@H](O)CC(=O)O [atorvastatin] |
| 1000 to 3000 | CC[C@H](C)C(=O)O[C@H]1C[C@@H](C)C=C2C=C[C@H](C)[C@H](CC[C@@H]3C[C@@H](O)CC(=O)O3)[C@H]21 [lovastatin] |
| < 1000 | CC(C)n1c(/C=C/C(O)CC(O)CC(=O)O)c(-c2ccc(F)cc2)c2ccccc21 (stereo not drawn) [fluvastatin] |
| < 1000 | O=C(O)C[C@H](O)C[C@H](O)/C=C/c1c(C2CC2)nc2ccccc2c1-c1ccc(F)cc1 [pitavastatin] |

Same assay, conditions: hHSC, TGFβ1 1 ng/mL, 48 h; result in words

| Compound | antifibrotic activity as single agent (α-SMA, dose-response) |
| --- | --- |
| CC(C)c1nc(N(C)S(C)(=O)=O)nc(-c2ccc(F)cc2)c1/C=C/[C@@H](O)C[C@@H](O)CC(=O)O [rosuvastatin] | significant antifibrotic activity but only at the highest doses |
| CC[C@H](C)C(=O)O[C@H]1C[C@H](O)C=C2C=C[C@H](C)[C@H](CC[C@@H](O)C[C@@H](O)CC(=O)O)[C@H]21 [pravastatin] | inactive |

Source: patent US11400078B2, “Methods of treatment for cholestatic and fibrotic diseases” (Genfit, priority 2016, dated 2022)
